One may read the IC50 as the concentration that gives 50% inhibition. Low readings indicate higher potency, high ones lower potency.

For this assay, the target named is T1, Chk1 (Homo sapiens, UniProt O14757).
T1 construct: purchased Upstate Biotechnology
T1 sequence (O14757 1-476): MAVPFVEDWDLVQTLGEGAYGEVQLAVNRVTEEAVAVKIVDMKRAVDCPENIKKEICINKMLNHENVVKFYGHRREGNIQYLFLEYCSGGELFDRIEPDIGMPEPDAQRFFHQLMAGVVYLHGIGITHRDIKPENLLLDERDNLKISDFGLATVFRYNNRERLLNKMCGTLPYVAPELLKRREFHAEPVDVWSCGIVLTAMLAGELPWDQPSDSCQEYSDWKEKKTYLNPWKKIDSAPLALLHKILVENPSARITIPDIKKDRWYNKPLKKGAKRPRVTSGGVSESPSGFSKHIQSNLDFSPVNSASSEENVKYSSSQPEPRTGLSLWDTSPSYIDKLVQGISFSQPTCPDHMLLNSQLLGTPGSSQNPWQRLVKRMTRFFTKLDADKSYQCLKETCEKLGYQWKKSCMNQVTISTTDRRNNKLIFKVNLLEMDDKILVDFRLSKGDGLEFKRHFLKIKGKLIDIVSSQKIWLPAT
The assay can be described thus: Chk1 assay: incorporation of γ-33P ATP into immobilized myelin basic protein. The following applies: Table 11; Chk1 only. The format is biochemical. As for the experimental part:
Chk1 and Chk2 assays were performed by measuring incorporation of γ-^33P ATP into immobilized myelin basic protein (MBP). High binding white 384 well plates (Greiner) were coated with MBP (Sigma #M-1891) by incubation of 60ul/well of 20µg/ml MBP in Tris-buffered saline (TBS; 50mM Tris pH 8.0, 138mM NaCl, 2.7mM KCl) for 24 hours at 4° C. Plates were washed 3X with 100µl TBS. Kinase reactions were carried out in a total volume of 34µl in kinase buffer (5mM Hepes pH 7.6, 15mM NaCl, 0.01% bovine gamma globulin (Sigma #I-5506), 10mM MgCl2, 1mM DTT, 0.02% TritonX-100). Compound dilutions were performed in DMSO and added to assay wells to a final DMSO concentration of 1%. Each data point was measured in duplicate, and at least two duplicate assays were performed for each individual compound determination. Chkl and Chk2 enzymes (Upstate Biotechnology) were added to final concentrations of 10nM (Chkl) or 20nM (Chk2). A mixture of unlabeled ATP and γ-^33P ATP was added to start the reaction (2x10^6 cpm of γ-^33P ATP per well (3000Ci/mmole) and either 10µM or 30µM unlabeled ATP (for Chkl and Chk2 assays respectively). The reaction was carried out for 1 hour at room temperature with shaking. Plates were washed 7x with TBS, followed by the addition of 50µl/well scintillation fluid (Wallac). Plates were read using a Wallac Trilux counter. This is only one format of such assays, various other formats are possible, as known to those skilled in the art.
The above assay procedure can be used to determine the IC50 for inhibition and/or the inhibition constant Ki. The IC50 is defined as the concentration of compound required to reduce the enzyme activity by 50% under the conditions of the assay. […] The Ki for a compound may be determined from the IC50 based on three assumptions. First, only one compound molecule binds to the enzyme and there is no cooperativity. […] Third, the enzymatic rate of the enzyme-inhibitor complex is zero. The rate (i.e., compound concentration) data are fitted to the equation: V = Vmax E0 [I-((E0+I0+Kd)-sqrt(((E0+I0+Kd))^2 -4E0 I0))/(2E0)] [formula]
Take `Nc1ncc(-c2ccccc2)nc1C(=O)NCCc1ccccc1` [compound 1, 3-amino-6-phenyl-N-(2-phenylethyl)pyrazine-2-carboxamide]: the IC50 was over 10 µM. Consider `Nc1ncc(-c2ccccc2)nc1C(=O)NCc1ccccc1` [compound 2, 3-amino-6-phenyl-N-(phenylmethyl)pyrazine-2-carboxamide], for which the IC50 is over 10 µM. For `NC(=O)c1nc(-c2cccc(Cl)c2)cnc1N` [compound 3, 3-amino-6-(3-chlorophenyl)pyrazine-2-carboxamide] the value was over 10 µM. For `Nc1ncc(-c2ccccc2)nc1C(=O)N[C@@H]1CCc2ccccc21` [compound 4, 3-amino-N-[(1R)-2,3-dihydro-1H-inden-1-yl]-6-phenylpyrazine-2-carboxamide] the value was over 10 µM; for `Nc1ncc(-c2ccccc2)nc1C(=O)NC1Cc2ccccc2C1` [compound 6, 3-amino-N-(2,3-dihydro-1H-inden-2-yl)-6-phenylpyrazine-2-carboxamide], over 10 µM; for `NC(=O)c1nc(-c2ccccc2Cl)cnc1N` [compound 7, 3-amino-6-(2-chlorophenyl)pyrazine-2-carboxamide], over 10 µM. To `Nc1ncc(-c2ccccc2)nc1C(=O)NC1CCCC1` [compound 8, 3-amino-N-cyclopentyl-6-phenylpyrazine-2-carboxamide] belongs over 10 µM; to `CN(C)C(=O)c1nc(-c2ccccc2)cnc1N` [compound 9, 3-amino-N,N-dimethyl-6-phenylpyrazine-2-carboxamide], 1 to 10 µM. `COc1cccc(-c2cnc(N)c(C(N)=O)n2)c1` [compound 10, 3-amino-6-[3-(methyloxy)phenyl]pyrazine-2-carboxamide] came in with an IC50 of 1 to 10 µM. `Nc1ncc(-c2ccccc2)nc1C(=O)N1CCCC1` [compound 11, 5-phenyl-3-(pyrrolidin-1-ylcarbonyl)pyrazin-2-amine] had a half-maximal inhibitory concentration (IC50) of over 10 µM. As to `Nc1ncc(-c2ccccc2)nc1C(=O)NCC1CC1` [compound 12, 3-amino-N-(cyclopropylmethyl)-6-phenylpyrazine-2-carboxamide], the half-inhibitory concentration (IC50) was over 10 µM. With `Nc1ncc(-c2ccccc2)nc1C(=O)NCC1CCCO1` (centres unmarked) [compound 13, 3-amino-6-phenyl-N-(tetrahydrofuran-2-ylmethyl)pyrazine-2-carboxamide], the IC50 was over 10 µM. `CCCNC(=O)c1nc(-c2ccccc2)cnc1NCCC` [compound 15, 6-phenyl-N-propyl-3-(propylamino)pyrazine-2-carboxamide] registered a half-inhibitory concentration (IC50) of over 10 µM.

Compound `Cc1ccccc1-c1cnc(N)c(C(N)=O)n1` [compound 16, 3-amino-6-(2-methylphenyl)pyrazine-2-carboxamide] had a concentration for half-maximal inhibition (IC50) of over 10 µM. For `Nc1ncc(-c2ccccc2)nc1C(=O)NC1CC1` [compound 20, 3-amino-N-cyclopropyl-6-phenylpyrazine-2-carboxamide] the value was over 10 µM; for `NC(=O)c1nc(-c2ccc(F)c(F)c2)cnc1N` [compound 21, 3-amino-6-(3,4-difluorophenyl)pyrazine-2-carboxamide], over 10 µM.

In the case of `CNC(=O)c1nc(-c2ccc(F)cc2)cnc1N` [compound 22, 3-amino-6-(4-fluorophenyl)-N-methylpyrazine-2-carboxamide], the half-inhibitory concentration (IC50) fell in the range of 1 to 10 µM. For `CCOc1ccc(-c2cnc(N)c(C(N)=O)n2)cc1` [compound 23, 3-amino-6-[4-(ethyloxy)phenyl]pyrazine-2-carboxamide] the value was 1 to 10 µM. As for `CCOc1cccc(-c2cnc(N)c(C(N)=O)n2)c1` [compound 24, 3-amino-6-[3-(ethyloxy)phenyl]pyrazine-2-carboxamide], the IC50 fell in the range of 1 to 10 µM. For `NC(=O)c1nc(-c2ccc3c(c2)OCO3)cnc1N` [compound 25, 3-amino-6-(1,3-benzodioxol-5-yl)pyrazine-2-carboxamide], the IC50 is over 10 µM. To `NC(=O)c1nc(-c2cccc3ccccc23)cnc1N` [compound 26, 3-amino-6-naphthalen-1-ylpyrazine-2-carboxamide] belongs over 10 µM; to `NC(=O)c1nc(-c2cccc(OC(F)(F)F)c2)cnc1N` [compound 28, 3-amino-6-{3-[(trifluoromethyl)oxy]phenyl}pyrazine-2-carboxamide], 1 to 10 µM.

For `NC(=O)c1cccc(-c2cnc(N)c(C(N)=O)n2)c1` [compound 29, 3-amino-6-[3-(aminocarbonyl)phenyl]pyrazine-2-carboxamide], the IC50 fell in the range of 1 to 10 µM. To `CC(=O)Nc1cccc(-c2cnc(N)c(C(N)=O)n2)c1` [compound 30, 6-[3-(acetylamino)phenyl]-3-aminopyrazine-2-carboxamide] belongs 1 to 10 µM; to `NC(=O)c1nc(-c2ccc(-c3ccccc3)cc2)cnc1N` [compound 31, 3-amino-6-biphenyl-4-ylpyrazine-2-carboxamide], over 10 µM; to `CN(C)c1ccc(-c2cnc(N)c(C(N)=O)n2)cc1` [compound 32, 3-amino-6-[4-(dimethylamino)phenyl]pyrazine-2-carboxamide], 1 to 10 µM. For `Cc1cccc(-c2cnc(N)c(C(N)=O)n2)c1` [compound 33, 3-amino-6-(3-methylphenyl)pyrazine-2-carboxamide] the value was 1 to 10 µM; for `COC(=O)c1cccc(-c2cnc(N)c(C(N)=O)n2)c1` [compound 34, methyl 3-[5-amino-6-(aminocarbonyl)pyrazin-2-yl]benzoate], 1 to 10 µM; for `NC(=O)c1nc(-c2cccc(OCc3ccccc3)c2)cnc1N` [compound 35, 3-amino-6-{3-[(phenylmethyl)oxy]phenyl}pyrazine-2-carboxamide], 0.05 to 1 µM. The compound `NC(=O)c1nc(-c2cccc(O)c2)cnc1N` [compound 36, 3-amino-6-(3-hydroxyphenyl)pyrazine-2-carboxamide] yielded a 50% inhibitory concentration (IC50) of 0.05 to 1 µM. For `NC(=O)c1nc(-c2cc3ccccc3o2)cnc1N` [compound 37, 3-amino-6-(1-benzofuran-2-yl)pyrazine-2-carboxamide] the value was over 10 µM. Consider `CNc1ncc(-c2ccccc2)nc1C(N)=O` [compound 38, 3-(methylamino)-6-phenylpyrazine-2-carboxamide], for which the IC50 was over 10 µM. Take `NC(=O)c1nc(-c2cccc(-c3ccccc3)c2)cnc1N` [compound 41, 3-amino-6-biphenyl-3-ylpyrazine-2-carboxamide]: the IC50 was 0.05 to 1 µM. For `NC(=O)c1nc(-c2cccc(C(=O)O)c2)cnc1N` [compound 42, 3-[5-amino-6-(aminocarbonyl)pyrazin-2-yl]benzoic acid] the value was over 10 µM; for `NC(=O)c1nc(-c2ccc(OCc3ccccc3)cc2)cnc1N` [compound 43, 3-amino-6-{4-[(phenylmethyl)oxy]phenyl}pyrazine-2-carboxamide], over 10 µM. The compound `CNC(=O)c1nc(-c2cccc(OCc3ccccc3)c2)cnc1N` [compound 44, 3-amino-N-methyl-6-{3-[(phenylmethyl)oxy]phenyl}pyrazine-2-carboxamide] gave an IC50 of 1 to 10 µM. For the compound `CNC(=O)c1nc(-c2cccc(O)c2)cnc1N` [compound 45, 3-amino-6-(3-hydroxyphenyl)-N-methylpyrazine-2-carboxamide], the half-maximal inhibitory concentration (IC50) was 0.05 to 1 µM. On to `COCCNC(=O)c1nc(-c2ccccc2)cnc1N` [compound 46, 3-amino-N-[2-(methyloxy)ethyl]-6-phenylpyrazine-2-carboxamide], for which the IC50 is 1 to 10 µM.
